Test results taken from article PMC7567103 (Nature Communications, 2020).

Assays:
Format in all cases: cell-based
GHRHR T213A = molecular target: T1, GHRHR T213A (Homo sapiens, UniProt Q02643, T213A); assay: cAMP accumulation, T213A; details: mean ± SEM, n ≥ 3
T1 construct: GHRHR(23-423)-; HA signal peptide (replaces native signal M1-G22) (N); expressed in transfected cells; host or cells: HEK 293T, pcDNA3.1, transient
Description: (§1) Fig. 2 Molecular recognition of GHRH by GHRHR and comparison of that with LA-PTH–PTH1R and GLP-1–GLP-1R. a Detailed interaction between GHRH and the TMD pocket of GHRHR with hydrogen bonds shown as dotted lines. b, c Pairwise comparison of GHRH bound to GHRHR with GLP-1 and LA-PTH in complex with their corresponding receptors, showing the relative positions of peptide ligands. Lime green, GHRHR; blue, GHRH; red, PTH1R and LA-PTH; purple, GLP-1R and GLP-1. d–f The effects of mutation in the ligand-binding pocket on cAMP accumulation. cAMP levels were measured in wild-type (WT) receptor and alanine mutants in ECL1, 2, and 3 (d), TM1, 2, and 3 (e), and TM5, 6, and 7 (f). cAMP signals were normalized to the maximum response of WT and concentration–response curves were analyzed using a three-parameter logistic equation. Data shown are means ± S.E.M. of at least three independent experiments (n = 3–5), conducted in triplicate. Source data are provided as a Source data file.
(§2) GHRH-stimulated cAMP accumulation was measured by a LANCE Ultra cAMP kit (PerkinElmer). […] After 1 h RT incubation, TR-FRET signals (excitation: 320 nm, emission: 615 and 665 nm) were measured by an EnVision (PerkinElmer).

GHRHR E361A = molecular target: T2, GHRHR E361A (Homo sapiens, UniProt Q02643, E361A); assay: cAMP accumulation, E361A; details: mean ± SEM, n ≥ 3
T2 construct: GHRHR(23-423)-; HA signal peptide (replaces native signal M1-G22) (N); expressed in transfected cells; host or cells: HEK 293 T
Description: as §1, §2

GHRHR F126A = molecular target: T3, GHRHR F126A (Homo sapiens, UniProt Q02643, F126A); assay: cAMP accumulation, F126A; details: mean ± SEM, n ≥ 3
T3 construct: GHRHR(23-423)-; HA signal peptide (replaces native signal M1-G22) (N); expressed in transfected cells; host or cells: HEK 293T, pcDNA3.1, transient
Description: as §1, §2

GHRHR N346A = molecular target: T4, GHRHR N346A (Homo sapiens, UniProt Q02643, N346A); assay: cAMP accumulation, N346A; details: mean ± SEM, n ≥ 3
T4 construct: GHRHR(23-423)-; HA signal peptide (replaces native signal M1-G22) (N); expressed in transfected cells; host or cells: HEK 293T, pcDNA3.1, transient
Description: as §1, §2

GHRHR H210A = molecular target: T5, GHRHR H210A (Homo sapiens, UniProt Q02643, H210A); assay: cAMP accumulation, H210A; details: mean ± SEM, n ≥ 3
T5 construct: GHRHR(23-423)-; HA signal peptide (replaces native signal M1-G22) (N); expressed in transfected cells; host or cells: HEK 293T, pcDNA3.1, transient
Description: as §1, §2

GHRHR H194A = molecular target: T6, GHRHR H194A (Homo sapiens, UniProt Q02643, H194A); assay: cAMP accumulation, H194A; details: mean ± SEM, n ≥ 3
T6 construct: GHRHR(23-423)-; HA signal peptide (replaces native signal M1-G22) (N); expressed in transfected cells; host or cells: HEK 293T, pcDNA3.1, transient
Description: as §1, §2

GHRHR I289A = molecular target: T7, GHRHR I289A (Homo sapiens, UniProt Q02643, I289A); assay: cAMP accumulation, I289A; details: mean ± SEM, n ≥ 3
T7 construct: GHRHR(23-423)-; HA signal peptide (replaces native signal M1-G22) (N); expressed in transfected cells; host or cells: HEK 293T, pcDNA3.1, transient
Description: as §1, §2

GHRHR(23-405) = molecular target: T8, GHRHR(23-405) (Homo sapiens, UniProt Q02643); assay: cAMP accumulation, construct GHRHR(23-405) (Supplementary Fig. 2b); details: HEK 293T; mean ± SEM, n = 8-10
T8 construct: 24 h after transfection with GHRHR(23-423), GHRHR(23-405), GHRHR(23-405)-LgBiT-2MBP, or HA-Flag-GHRHR (WT and mutants); HA signal peptide (replaces native signal M1-G22) (N); expressed in transfected cells; host or cells: HEK 293 T
Description: GHRH-stimulated cAMP accumulation was measured by a LANCE Ultra cAMP kit (PerkinElmer). Briefly, 24 h after transfection with GHRHR(23-423), GHRHR(23-405), GHRHR(23-405)-LgBiT-2MBP, or HA-Flag-GHRHR (WT and mutants), HEK 293 T cells (3000/well in 384-well white plates, PerkinElmer) were digested by 0.2% (w/v) EDTA and 5 μL stimulation buffer (HBSS supplemented with 5 mM HEPES, 0.5 mM IBMX, and 0.1% (w/v) BSA, pH 7.4). Different concentrations (5 μL) of GHRH were then added and the stimulation lasted for 30 min at RT. The reaction was stopped by adding 5 μL Eu-cAMP tracer and 5 μL ULight-anti-cAMP. After 1 h RT incubation, TR-FRET signals (excitation: 320 nm, emission: 615 and 665 nm) were measured by an EnVision (PerkinElmer).
223 Supplementary Ta b l e 1. Effects of GHRH-mediated cAMP accumulation.
Receptor cAMP Cell surface expression Binding
pEC50 Emax (% WT) (% WT) pIC50 […]
225 to determine pEC50 and Emax values. pEC50 is the negative logarithm of the molar
226 concentration of agonist that induced half the maximal response. Cell surface […]
228 Flag antibody (Sigma-Aldrich, 1:300); Donkey anti-Mouse Alexa Fluor 488-
229 conjugated secondary antibody, (ThermoFisher Scientific, 1:1000)] on the […]
231 Binding data were analyzed using a three-parameter logistic equation to […]
234 determine statistical difference. *P<0.01; ND, not determined.

GHRHR D276A = molecular target: T9, GHRHR D276A (Homo sapiens, UniProt Q02643, D276A); assay: cAMP accumulation, D276A; details: mean ± SEM, n ≥ 3
T9 construct: GHRHR(23-423)-; HA signal peptide (replaces native signal M1-G22) (N); expressed in transfected cells; host or cells: HEK 293T, pcDNA3.1, transient
Description: as §1, §2

GHRHR D274A = molecular target: T10, GHRHR D274A (Homo sapiens, UniProt Q02643, D274A); assay: cAMP accumulation, D274A; details: mean ± SEM, n ≥ 3
T10 construct: GHRHR(23-423)-; HA signal peptide (replaces native signal M1-G22) (N); expressed in transfected cells; host or cells: HEK 293T, pcDNA3.1, transient
Description: as §1, §2

GHRHR A271F = molecular target: T11, GHRHR A271F (Homo sapiens, UniProt Q02643, A271F); assay: cAMP accumulation, A271F; details: mean ± SEM, n ≥ 3
T11 construct: GHRHR(23-423)-; HA signal peptide (replaces native signal M1-G22) (N); expressed in transfected cells; host or cells: HEK 293T, pcDNA3.1, transient
Description: as §1, §2

GHRHR W282A = molecular target: T12, GHRHR W282A (Homo sapiens, UniProt Q02643, W282A); assay: cAMP accumulation, W282A; details: mean ± SEM, n ≥ 3
T12 construct: GHRHR(23-423)-; HA signal peptide (replaces native signal M1-G22) (N); expressed in transfected cells; host or cells: HEK 293T, pcDNA3.1, transient
Description: as §1, §2

GHRHR V129A = molecular target: T13, GHRHR V129A (Homo sapiens, UniProt Q02643, V129A); assay: cAMP accumulation, V129A; details: mean ± SEM, n ≥ 3
T13 construct: GHRHR(23-423)-; HA signal peptide (replaces native signal M1-G22) (N); expressed in transfected cells; host or cells: HEK 293T, pcDNA3.1, transient
Description: as §1, §2

GHRHR L119A = molecular target: T14, GHRHR L119A (Homo sapiens, UniProt Q02643, L119A); assay: cAMP accumulation, L119A; details: mean ± SEM, n ≥ 3
T14 construct: GHRHR(23-423)-; HA signal peptide (replaces native signal M1-G22) (N); expressed in transfected cells; host or cells: HEK 293T, pcDNA3.1, transient
Description: as §1, §2

GHRHR L362A = molecular target: T15, GHRHR L362A (Homo sapiens, UniProt Q02643, L362A); assay: cAMP accumulation, L362A; details: mean ± SEM, n ≥ 3
T15 construct: GHRHR(23-423)-; HA signal peptide (replaces native signal M1-G22) (N); expressed in transfected cells; host or cells: HEK 293 T
Description: as §1, §2

GHRHR S209A = molecular target: T16, GHRHR S209A (Homo sapiens, UniProt Q02643, S209A); assay: cAMP accumulation, S209A; details: mean ± SEM, n ≥ 3
T16 construct: GHRHR(23-423)-; HA signal peptide (replaces native signal M1-G22) (N); expressed in transfected cells; host or cells: HEK 293T, pcDNA3.1, transient
Description: as §1, §2

T1 sequence (Q02643 23-423 T213A): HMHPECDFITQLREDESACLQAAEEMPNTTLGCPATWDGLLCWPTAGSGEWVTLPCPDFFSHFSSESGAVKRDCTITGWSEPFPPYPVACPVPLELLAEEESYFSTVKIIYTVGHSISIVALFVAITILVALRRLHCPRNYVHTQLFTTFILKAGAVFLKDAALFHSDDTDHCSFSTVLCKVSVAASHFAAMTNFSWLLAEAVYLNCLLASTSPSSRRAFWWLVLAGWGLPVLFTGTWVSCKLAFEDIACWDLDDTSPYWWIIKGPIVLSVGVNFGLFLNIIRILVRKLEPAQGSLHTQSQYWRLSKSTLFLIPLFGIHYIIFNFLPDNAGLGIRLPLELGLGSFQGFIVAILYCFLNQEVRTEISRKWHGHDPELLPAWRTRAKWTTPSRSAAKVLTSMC
T16 sequence (Q02643 23-423 S209A): as the sequence (Q02643 23-423 T213A) above, with S187A, A191T counted along it
T9 sequence (Q02643 23-423 D276A): as the sequence (Q02643 23-423 T213A) above, with A191T, D254A counted along it
T5 sequence (Q02643 23-423 H210A): as the sequence (Q02643 23-423 T213A) above, with H188A, A191T counted along it
T7 sequence (Q02643 23-423 I289A): as the sequence (Q02643 23-423 T213A) above, with A191T, I267A counted along it
T14 sequence (Q02643 23-423 L119A): as the sequence (Q02643 23-423 T213A) above, with L97A, A191T counted along it
T8 sequence (Q02643 23-405): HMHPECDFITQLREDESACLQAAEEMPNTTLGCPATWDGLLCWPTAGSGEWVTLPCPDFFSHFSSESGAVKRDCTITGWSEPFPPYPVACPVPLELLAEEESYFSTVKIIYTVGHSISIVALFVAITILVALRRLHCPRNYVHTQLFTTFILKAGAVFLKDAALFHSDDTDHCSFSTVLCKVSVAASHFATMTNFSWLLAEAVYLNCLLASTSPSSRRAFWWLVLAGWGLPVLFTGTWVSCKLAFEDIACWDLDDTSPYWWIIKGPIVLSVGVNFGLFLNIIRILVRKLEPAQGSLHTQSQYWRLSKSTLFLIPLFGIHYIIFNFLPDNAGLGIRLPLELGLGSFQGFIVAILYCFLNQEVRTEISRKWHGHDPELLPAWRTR
T12 sequence (Q02643 23-423 W282A): as the sequence (Q02643 23-423 T213A) above, with A191T, W260A counted along it
T6 sequence (Q02643 23-423 H194A): as the sequence (Q02643 23-423 T213A) above, with H172A, A191T counted along it
T13 sequence (Q02643 23-423 V129A): as the sequence (Q02643 23-423 T213A) above, with V107A, A191T counted along it
T15 sequence (Q02643 23-423 L362A): as the sequence (Q02643 23-423 T213A) above, with A191T, L340A counted along it
T3 sequence (Q02643 23-423 F126A): as the sequence (Q02643 23-423 T213A) above, with F104A, A191T counted along it
T4 sequence (Q02643 23-423 N346A): as the sequence (Q02643 23-423 T213A) above, with A191T, N324A counted along it
T10 sequence (Q02643 23-423 D274A): as the sequence (Q02643 23-423 T213A) above, with A191T, D252A counted along it
T2 sequence (Q02643 23-423 E361A): as the sequence (Q02643 23-423 T213A) above, with A191T, E339A counted along it
T11 sequence (Q02643 23-423 A271F): as the sequence (Q02643 23-423 T213A) above, with A191T, A249F counted along it

## CC[C@H](C)[C@H](NC(=O)[C@H](C)NC(=O)[C@H](CC(=O)O)NC(=O)[C@H](C)NC(=O)[C@@H](N)Cc1ccc(O)cc1)C(=O)N[C@@H](Cc1ccccc1)C(=O)N[C@H](C(=O)N[C@@H](CC(N)=O)C(=O)N[C@@H](CO)C(=O)N[C@@H](Cc1ccc(O)cc1)C(=O)N[C@@H](CCCNC(=N)N)C(=O)N[C@@H](CCCCN)C(=O)N[C@H](C(=O)N[C@@H](CC(C)C)C(=O)NCC(=O)N[C@@H](CCC(N)=O)C(=O)N[C@@H](CC(C)C)C(=O)N[C@@H](CO)C(=O)N[C@@H](C)C(=O)N[C@@H](CCCNC(=N)N)C(=O)N[C@@H](CCCCN)C(=O)N[C@@H](CC(C)C)C(=O)N[C@@H](CC(C)C)C(=O)N[C@@H](CCC(N)=O)C(=O)N[C@@H](CC(=O)O)C(=O)N[C@H](C(=O)N[C@@H](CCSC)C(=O)N[C@@H](CO)C(=O)N[C@@H](CCCNC(=N)N)C(=O)N[C@@H](CCC(N)=O)C(=O)N[C@@H](CCC(N)=O)C(=O)NCC(=O)N[C@@H](CCC(=O)O)C(=O)N[C@@H](CO)C(=O)N[C@@H](CC(N)=O)C(=O)N[C@@H](CCC(N)=O)C(=O)N[C@@H](CCC(=O)O)C(=O)N[C@@H](CCCNC(=N)N)C(=O)NCC(=O)N[C@@H](C)C(=O)N[C@@H](CCCNC(=N)N)C(=O)N[C@@H](C)C(=O)N[C@@H](CCCNC(=N)N)C(=O)N[C@@H](CC(C)C)C(N)=O)[C@@H](C)CC)C(C)C)[C@@H](C)O [GHRH, Growth hormone-releasing hormone]
GHRHR T213A
  EC50: 0.447 nM
  Emax: 91.48±4.55 % WT
GHRHR E361A
  EC50: 1.05 nM
  Emax: 18.75±4.38 % WT
GHRHR F126A
  EC50: 1.1 nM
  Emax: 98.92±0.84 % WT
GHRHR N346A
  EC50: 1.41 nM
  Emax: 101.21±3.69 % WT
GHRHR H210A
  EC50: 1 nM
  Emax: 99.66±1.10 % WT
GHRHR H194A
  EC50: 0.251 nM
  Emax: 98.01±1.25 % WT
GHRHR I289A
  EC50: 9.77 nM
  Emax: 93.36±2.36 % WT
GHRHR(23-405)
  EC50: 0.871 nM
  Emax: 120.55±1.97 % WT
GHRHR D276A
  EC50: 0.331 nM
  Emax: 102.04±0.51 % WT
GHRHR D274A
  EC50: 0.468 nM
  Emax: 99.78±2.32 % WT
GHRHR A271F
  EC50: 0.186 nM
  Emax: 103.70±0.64 % WT
GHRHR W282A
  EC50: 13.2 nM
  Emax: 101.88±5.62 % WT
GHRHR V129A
  EC50: 166 nM
  Emax: 24.33±6.11 % WT
GHRHR L119A
  EC50: 0.724 nM
  Emax: 98.67±1.48 % WT
GHRHR L362A
  EC50: 0.112 nM
  Emax: 103.97±0.47 % WT
GHRHR S209A
  EC50: 0.11 nM
  Emax: 100.52±0.43 % WT
